Test results: patent US20240158446A1, “CYCLIC COMPOUND HAVING SELECTIVE INHIBITORY ACTION ON KRAS OVER HRAS AND NRAS” (CHUGAI SEIYAKU KABUSHIKI KAISHA, priority 2021, published 2024)
Where a SMILES comes first, the peptide text is derived from it. Bridges are numbered along the chain shown (N, C = ends). [ ]: non-standard residue; d: D form. The star is where a group is joined. hPhe(3-Cl-4-CF3) = N[C@@H](CCc1ccc(C(F)(F)F)c(Cl)c1)C(=O)O; NPrPhe(4-CF3) = CCCN[C@@H](Cc1ccc(C(F)(F)F)cc1)C(=O)O; Morpholine(3S-CO) = O=C(O)[C@@H]1COCCN1; Pip(4,4-F2) = O=C(O)[C@@H]1CC(F)(F)CCN1; NMeGly(cPent) = CN[C@H](C(=O)O)C1CCCC1; Hyp = O=C(O)[C@@H]1C[C@@H](O)CN1; Gly(cBu) = N[C@H](C(=O)O)C1CCC1; NMeD = CN[C@@H](CC(=O)O)C(=O)O; NMeL = CN[C@@H](CC(C)C)C(=O)O; Pip = O=C(O)[C@@H]1CCCCN1; Morpholide = C1CN(*)CCO1; Ac5c = NC1(C(=O)O)CCCC1; Aze = O=C(O)[C@@H]1CCN1; Ac4c = NC1(C(=O)O)CCC1; NPrGly = CCCNCC(=O)O; NEtG = CCNCC(=O)O; Sar = CNCC(=O)O

How the values were obtained:
[1] = target: GDP-bound KRAS wild-type protein (Homo sapiens, UniProt P01116); test: Binding to KRAS by surface plasmon resonance (SPR), Single Cycle Kinetics; conditions: SPR Single Cycle Kinetics, GDP-bound KRAS wild-type protein, 1:1 binding model; read-out: KRAS KD
Sequence of GDP-bound KRAS wild-type protein (P01116 whole entry): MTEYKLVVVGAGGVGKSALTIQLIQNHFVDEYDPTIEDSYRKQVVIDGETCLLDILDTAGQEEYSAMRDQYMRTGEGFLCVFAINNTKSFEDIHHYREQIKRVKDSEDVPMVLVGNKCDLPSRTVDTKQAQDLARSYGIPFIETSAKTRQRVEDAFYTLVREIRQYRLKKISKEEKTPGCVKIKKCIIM

[2] = target: GDP-bound NRAS wild-type protein (Homo sapiens, UniProt P01111); test: Binding to NRAS by surface plasmon resonance (SPR), Single Cycle Kinetics; conditions: SPR, GDP-bound NRAS wild-type protein vs GDP-bound KRAS wild-type protein
Sequence of GDP-bound NRAS wild-type protein (P01111 whole entry): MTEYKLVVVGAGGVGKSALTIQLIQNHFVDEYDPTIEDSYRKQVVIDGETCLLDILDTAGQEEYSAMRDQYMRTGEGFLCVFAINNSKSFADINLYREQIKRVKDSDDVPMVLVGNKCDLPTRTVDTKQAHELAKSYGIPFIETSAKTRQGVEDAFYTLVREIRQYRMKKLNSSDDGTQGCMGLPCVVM

[3] = target: GDP-bound HRAS wild-type protein (Homo sapiens, UniProt P01112); test: Binding to HRAS by surface plasmon resonance (SPR), Single Cycle Kinetics; conditions: SPR, GDP-bound HRAS wild-type protein vs GDP-bound KRAS wild-type protein
Sequence of GDP-bound HRAS wild-type protein (P01112 whole entry): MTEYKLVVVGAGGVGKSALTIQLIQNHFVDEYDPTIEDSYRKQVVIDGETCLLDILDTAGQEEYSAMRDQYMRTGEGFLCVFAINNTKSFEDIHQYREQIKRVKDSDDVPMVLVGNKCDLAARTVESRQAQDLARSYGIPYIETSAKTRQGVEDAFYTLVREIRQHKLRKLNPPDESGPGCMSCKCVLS

Kd [1]	Compound	NRAS/KRAS (ratio of KD value for NRAS to KD value for KRAS) [2]	HRAS/KRAS (ratio of KD value for HRAS to KD value for KRAS) [3]
1.6 nM	CCCN1C(=O)CN(C)C(=O)[C@@H]2CCN2C(=O)[C@H]([C@@H](C)CC)NC(=O)[C@H](CC(C)C)N(C)C(=O)C[C@@H](C(=O)N2CCOCC2)N(C)C(=O)[C@H](C2CCCC2)N(C)C(=O)C2(CCCC2)NC(=O)CN(C)C(=O)[C@H](CCc2ccc(C(F)(F)F)c(Cl)c2)NC(=O)CN(C)C(=O)[C@@H]1Cc1ccc(C(F)(F)F)cc1 [PP0314] ([NMeL]I[Aze][Sar][NPrPhe(4-CF3)][Sar][hPhe(3-Cl-4-CF3)][Sar][Ac5c][NMeGly(cPent)][NMeD]-Morpholide; lactam N-11)	B (a compound having 3 or more and less than 10 is denoted as B)	C (A compound having a KD ratio of 0.1 or more and less than 3 is denoted as C)
3.8 nM	CCCN1CC(=O)NC2(CCCC2)C(=O)N(C)[C@@H](C2CCCC2)C(=O)N(C)[C@H](C(=O)N2CCOCC2)CC(=O)N(C)[C@@H](CC(C)C)C(=O)N[C@@H]([C@@H](C)CC)C(=O)N2CC[C@H]2C(=O)N(C)CC(=O)N(CCC)[C@@H](Cc2ccc(C(F)(F)F)cc2)C(=O)N(C)CC(=O)N[C@@H](CCc2ccc(C(F)(F)F)c(Cl)c2)C1=O [PP0315] ([NMeL]I[Aze][Sar][NPrPhe(4-CF3)][Sar][hPhe(3-Cl-4-CF3)][NPrGly][Ac5c][NMeGly(cPent)][NMeD]-Morpholide; lactam N-11)	B (a compound having 3 or more and less than 10 is denoted as B)	B (a compound having 3 or more and less than 10 is denoted as B)
0.054 nM	CC[C@H](C)[C@@H]1NC(=O)[C@H](CC(C)C)N(C)C(=O)C[C@@H](C(=O)N2CCOCC2)N(C)C(=O)[C@H](C2CCCC2)N(C)C(=O)C2(CCCC2)NC(=O)[C@@H]2CCCN2C(=O)[C@H](CCc2ccc(C(F)(F)F)c(Cl)c2)NC(=O)CN(C)C(=O)[C@H](Cc2ccc(C)cc2)N2CCCC[C@@H](C2=O)N(C)C(=O)CN(C)C1=O [PP0316]	C (A compound having a KD ratio of 0.1 or more and less than 3 is denoted as C)	B (a compound having 3 or more and less than 10 is denoted as B)
0.86 nM	CC[C@H](C)[C@@H]1NC(=O)[C@H](CC(C)C)N(C)C(=O)C[C@@H](C(=O)N2CCOCC2)N(C)C(=O)[C@H](C2CCCC2)N(C)C(=O)C2(CCCC2)NC(=O)[C@@H]2CCCN2C(=O)[C@H](CCc2ccc(C(F)(F)F)c(Cl)c2)NC(=O)CN(C)C(=O)[C@H](Cc2ccc(C)cc2)N2CCCCC[C@@H](C2=O)N(C)C(=O)CN(C)C1=O [PP0317]	B (a compound having 3 or more and less than 10 is denoted as B)	B (a compound having 3 or more and less than 10 is denoted as B)
0.034 nM	CC[C@H](C)[C@@H]1NC(=O)[C@H](CC(C)C)N(C)C(=O)C[C@@H](C(=O)N2CCOCC2)N(C)C(=O)[C@H](C2CCCC2)N(C)C(=O)C2(CCCC2)NC(=O)[C@@H]2CCCN2C(=O)[C@H](CCc2ccc(C(F)(F)F)c(Cl)c2)NC(=O)CN(C)C(=O)[C@H](Cc2ccc(C(F)(F)F)cc2)N2CCCC[C@@H](C2=O)N(C)C(=O)CN(C)C1=O [PP0318]	B (a compound having 3 or more and less than 10 is denoted as B)	B (a compound having 3 or more and less than 10 is denoted as B)
0.9 nM	CCCN1C(=O)CN(C)C(=O)CN(C)C(=O)[C@H]([C@@H](C)CC)NC(=O)[C@H](CC(C)C)N(C)C(=O)C[C@@H](C(=O)N2CCOCC2)NC(=O)[C@H](C2CCCC2)N(C)C(=O)C2(CCC2)NC(=O)[C@@H]2CCCN2C(=O)[C@H](CCc2ccc(C(F)(F)F)c(Cl)c2)NC(=O)CN(C)C(=O)[C@@H]1Cc1ccc(C(F)(F)F)cc1 [PP0320] ([NMeL]I[Sar][Sar][NPrPhe(4-CF3)][Sar][hPhe(3-Cl-4-CF3)]P[Ac4c][NMeGly(cPent)]D-Morpholide; lactam N-11)	B (a compound having 3 or more and less than 10 is denoted as B)	B (a compound having 3 or more and less than 10 is denoted as B)

Further lines, the compound ahead of its results:

Compound	Kd [1]	NRAS/KRAS (ratio of KD value for NRAS to KD value for KRAS) [2]	HRAS/KRAS (ratio of KD value for HRAS to KD value for KRAS) [3]
CCCN1C(=O)CN(C)C(=O)CN(CC)C(=O)[C@H]([C@@H](C)CC)NC(=O)[C@H](CC(C)C)N(C)C(=O)C[C@@H](C(=O)N2CCOCC2)N(C)C(=O)[C@H](C2CCCC2)N(C)C(=O)C2(CCCC2)NC(=O)[C@@H]2COCCN2C(=O)[C@H](CCc2ccc(C(F)(F)F)c(Cl)c2)NC(=O)CN(C)C(=O)[C@@H]1Cc1ccc(C(F)(F)F)cc1 [PP0299] ([NMeL]I[NEtG][Sar][NPrPhe(4-CF3)][Sar][hPhe(3-Cl-4-CF3)][Morpholine(3S-CO)][Ac5c][NMeGly(cPent)][NMeD]-Morpholide; lactam N-11)	1.4 nM	B (a compound having 3 or more and less than 10 is denoted as B)	B (a compound having 3 or more and less than 10 is denoted as B)
CCCN1C(=O)CN(C)C(=O)CN(CC)C(=O)[C@H]([C@@H](C)CC)NC(=O)[C@H](CC(C)C)N(C)C(=O)C[C@@H](C(=O)N2CCOCC2)N(C)C(=O)[C@H](C2CCCC2)N(C)C(=O)C2(CCCC2)NC(=O)CN(C)C(=O)[C@H](CCc2ccc(C(F)(F)F)c(Cl)c2)NC(=O)CN(C)C(=O)[C@@H]1Cc1ccc(C(F)(F)F)cc1 [PP0300] ([NMeL]I[NEtG][Sar][NPrPhe(4-CF3)][Sar][hPhe(3-Cl-4-CF3)][Sar][Ac5c][NMeGly(cPent)][NMeD]-Morpholide; lactam N-11)	1.4 nM	B (a compound having 3 or more and less than 10 is denoted as B)	C (A compound having a KD ratio of 0.1 or more and less than 3 is denoted as C)
CCCN1CC(=O)NC2(CCCC2)C(=O)N(C)[C@@H](C2CCCC2)C(=O)N(C)[C@H](C(=O)N2CCOCC2)CC(=O)N(C)[C@@H](CC(C)C)C(=O)N[C@@H]([C@@H](C)CC)C(=O)N(CC)CC(=O)N(C)CC(=O)N(CCC)[C@@H](Cc2ccc(C(F)(F)F)cc2)C(=O)N(C)CC(=O)N[C@@H](CCc2ccc(C(F)(F)F)c(Cl)c2)C1=O [PP0301] ([NMeL]I[NEtG][Sar][NPrPhe(4-CF3)][Sar][hPhe(3-Cl-4-CF3)][NPrGly][Ac5c][NMeGly(cPent)][NMeD]-Morpholide; lactam N-11)	4.8 nM	B (a compound having 3 or more and less than 10 is denoted as B)	C (A compound having a KD ratio of 0.1 or more and less than 3 is denoted as C)
CCCN1C(=O)CN(C)C(=O)[C@@H]2CCN2C(=O)[C@H](C2CCC2)NC(=O)[C@H](CC(C)C)N(C)C(=O)C[C@@H](C(=O)N2CCOCC2)N(C)C(=O)[C@H](C2CCCC2)N(C)C(=O)C2(CCCC2)NC(=O)[C@@H]2CCCN2C(=O)[C@H](CCc2ccc(C(F)(F)F)c(Cl)c2)NC(=O)CN(C)C(=O)[C@@H]1Cc1ccc(C(F)(F)F)cc1 [PP0305] ([NMeL][Gly(cBu)][Aze][Sar][NPrPhe(4-CF3)][Sar][hPhe(3-Cl-4-CF3)]P[Ac5c][NMeGly(cPent)][NMeD]-Morpholide; lactam N-11)	0.96 nM	B (a compound having 3 or more and less than 10 is denoted as B)	C (A compound having a KD ratio of 0.1 or more and less than 3 is denoted as C)
CCCN1C(=O)CN(C)C(=O)[C@@H]2CCN2C(=O)[C@H]([C@@H](C)CC)NC(=O)[C@H](CC(C)C)N(C)C(=O)C[C@@H](C(=O)N2CCOCC2)N(C)C(=O)[C@H](C2CCCC2)N(C)C(=O)C2(CCCC2)NC(=O)[C@@H]2C[C@@H](OCC)CN2C(=O)[C@H](CCc2ccc(C(F)(F)F)c(Cl)c2)NC(=O)CN(C)C(=O)[C@@H]1Cc1ccc(C(F)(F)F)cc1 [PP0310] ([NMeL]I[Aze][Sar][NPrPhe(4-CF3)][Sar][hPhe(3-Cl-4-CF3)][Hyp](Et)[Ac5c][NMeGly(cPent)][NMeD]-Morpholide; lactam N-11)	0.45 nM	B (a compound having 3 or more and less than 10 is denoted as B)	C (A compound having a KD ratio of 0.1 or more and less than 3 is denoted as C)
CCCN1C(=O)CN(C)C(=O)[C@@H]2CCN2C(=O)[C@H]([C@@H](C)CC)NC(=O)[C@H](CC(C)C)N(C)C(=O)C[C@@H](C(=O)N2CCOCC2)N(C)C(=O)[C@H](C2CCCC2)N(C)C(=O)C2(CCCC2)NC(=O)[C@@H]2CCCCN2C(=O)[C@H](CCc2ccc(C(F)(F)F)c(Cl)c2)NC(=O)CN(C)C(=O)[C@@H]1Cc1ccc(C(F)(F)F)cc1 [PP0311] ([NMeL]I[Aze][Sar][NPrPhe(4-CF3)][Sar][hPhe(3-Cl-4-CF3)][Pip][Ac5c][NMeGly(cPent)][NMeD]-Morpholide; lactam N-11)	3.3 nM	B (a compound having 3 or more and less than 10 is denoted as B)	B (a compound having 3 or more and less than 10 is denoted as B)
CCCN1C(=O)CN(C)C(=O)[C@@H]2CCN2C(=O)[C@H]([C@@H](C)CC)NC(=O)[C@H](CC(C)C)N(C)C(=O)C[C@@H](C(=O)N2CCOCC2)N(C)C(=O)[C@H](C2CCCC2)N(C)C(=O)C2(CCCC2)NC(=O)[C@@H]2CC(F)(F)CCN2C(=O)[C@H](CCc2ccc(C(F)(F)F)c(Cl)c2)NC(=O)CN(C)C(=O)[C@@H]1Cc1ccc(C(F)(F)F)cc1 [PP0312] ([NMeL]I[Aze][Sar][NPrPhe(4-CF3)][Sar][hPhe(3-Cl-4-CF3)][Pip(4,4-F2)][Ac5c][NMeGly(cPent)][NMeD]-Morpholide; lactam N-11)	3.4 nM	B (a compound having 3 or more and less than 10 is denoted as B)	B (a compound having 3 or more and less than 10 is denoted as B)
